Data on 20 compounds can be found in ChEMBL document CHEMBL1128178, “Kynurenic acid derivatives inhibit the binding of nerve growth factor (NGF) to the low-affinity p75 NGF receptor” (J Med Chem, 1995).

The structures appear in SMILES notation.

The target in the first assay is T1, Tumor necrosis factor receptor superfamily member 16 (Homo sapiens, UniProt P08138).
T1 sequence (P08138 whole entry): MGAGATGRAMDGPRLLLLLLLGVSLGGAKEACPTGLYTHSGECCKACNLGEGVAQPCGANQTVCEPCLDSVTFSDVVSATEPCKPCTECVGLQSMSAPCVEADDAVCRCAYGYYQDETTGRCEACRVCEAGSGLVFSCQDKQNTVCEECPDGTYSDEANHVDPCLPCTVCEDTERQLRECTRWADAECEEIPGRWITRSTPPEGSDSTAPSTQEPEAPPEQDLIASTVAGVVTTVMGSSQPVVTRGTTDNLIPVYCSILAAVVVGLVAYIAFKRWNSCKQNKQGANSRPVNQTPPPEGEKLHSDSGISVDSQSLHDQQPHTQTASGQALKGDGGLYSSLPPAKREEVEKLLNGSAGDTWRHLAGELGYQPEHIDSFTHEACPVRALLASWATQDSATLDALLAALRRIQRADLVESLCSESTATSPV
The experiment in a line: Inhibition of [125I]- NGF binding to extracellular domain of p75 receptor; IA=Inactive.
Regarding `Cc1ccc(C(=O)Nc2ccc3c(c2)c(=O)cc(C(=O)O)n3C)cc1`, the IC50 entry was “Not Active”.
The same measure, in the same setting: next, `O=C(O)c1cc(=O)c2ccccc2[nH]1` [TRANSTORINE]: “Not Active”.
Same read-out and setting: next, `NC(=O)c1ccc2nc(C(=O)O)cc(O)c2c1`: “Not Active”; `Cc1ccc(C(=O)Nc2ccc3c(O)cc(C(=O)O)nc3c2)cc1`: “Not Active”; `O=C(O)c1cc(O)c2c(C(=O)O)cccc2n1`: “Not Active”.
With `O=C(O)c1cc(O)c2cc([N+](=O)[O-])ccc2n1`, the IC50 result is on record as “Not Active”.
With `O=C(O)c1cc(O)c2c(Cl)cc(Cl)cc2n1`, the IC50 entry is “Not Active”.
`Cc1ccc(C(=O)Nc2ccc3nc(C(=O)O)cc(O)c3c2)cc1`: the IC50 entry is reported as “Not Active”.
Same read-out and setting: next, `O=C(O)c1ccc2nc(C(=O)O)cc(O)c2c1`: “Not Active”; `Cn1c(C(=O)O)cc(=O)c2cc(N)ccc21`: “Not Active”.
In the case of `O=C(O)c1ccc2c(O)cc(C(=O)O)nc2c1`, the IC50 result is listed as “Not Active”.

The next assay addresses T2, Tumor necrosis factor receptor superfamily member 16 (Homo sapiens) (UniProt P08138).
T2 sequence (whole entry): T1 sequence (P08138 whole entry)
The experiment in a line: Percent inhibition of [125I]- NGF binding to extracellular domain of p75 receptor at 10 uM.
In turn, `Nc1ccc2c(O)cc(C(=O)O)nc2c1` returned an inhibition of 37%.
For the compound `Nc1cccc2nc(C(=O)O)cc(O)c12`, the inhibition turned out to be 50%.
`COc1cc(C(=O)O)nc2ccc(NC(=O)c3ccc(C)cc3)cc12` yielded an inhibition of 29%.
The compound `COc1cc(C(=O)O)nc2ccc(N)cc12` registered an inhibition of 28%.
Compound `Cc1ccc(C(=O)Nc2cccc3nc(C(=O)O)cc(O)c23)cc1` came in with an inhibition of 38%.

In a further assay the target is T1, Tumor necrosis factor receptor superfamily member 16. The assay can be described thus: Inhibition of [125I]- NGF binding to extracellular domain of p75 receptor.
`Cn1c2ccc(NC(=O)c3ccccc3)cc2c(=O)n2nc(C(=O)O)cc12` showed an IC50 of 200 nM.
On to `COC(=O)c1c(C)sc2c(O)cc(C(=O)Nn3cnnn3)nc12`, for which the IC50 turned out to be 1300 nM.
The compound `Nc1ccc2nc(C(=O)O)cc(O)c2c1` returned an IC50 of 3100 nM.
Compound `COC(=O)c1c(C)sc2c(O)cc(C(=O)O)nc12` registered an IC50 of 2300 nM.
